According to ChEMBL document CHEMBL4414619, “Protein Tyrosine Phosphatase 1B Inhibitory Iridoids from Psydrax subcordata” (J Nat Prod, 2019):

How the values were obtained:
[1] = molecular target: T1, Tyrosine-protein phosphatase non-receptor type 1 (Homo sapiens, UniProt P18031); assay: Inhibition of N-terminal GST tagged recombinant human PTP1B catalytic domain (1 to 321 residues) expressed in Escherichia coli using pNPP as substrate preincubated for 10 mins followed by substrate addition and measured every 5 mins for 30 mins
T1 sequence (P18031 whole entry): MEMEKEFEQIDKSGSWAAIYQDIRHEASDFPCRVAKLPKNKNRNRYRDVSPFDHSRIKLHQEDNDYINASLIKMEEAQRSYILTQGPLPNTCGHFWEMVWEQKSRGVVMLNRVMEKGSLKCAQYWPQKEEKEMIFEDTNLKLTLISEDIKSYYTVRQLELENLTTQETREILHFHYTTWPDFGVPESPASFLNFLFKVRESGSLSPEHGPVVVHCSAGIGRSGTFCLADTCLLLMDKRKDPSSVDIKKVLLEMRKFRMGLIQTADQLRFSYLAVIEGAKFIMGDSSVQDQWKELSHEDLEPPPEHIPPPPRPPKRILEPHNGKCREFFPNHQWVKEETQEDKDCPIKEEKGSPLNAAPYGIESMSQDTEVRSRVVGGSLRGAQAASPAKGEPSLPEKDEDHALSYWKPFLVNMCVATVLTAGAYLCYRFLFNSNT

[2] = molecular target: T1, Tyrosine-protein phosphatase non-receptor type 1; assay: (§1) Competitive inhibition of N-terminal GST-tagged recombinant human PTP1B catalytic domain (1 to 321 residues) expressed in Escherichia coli assessed as inhibitory constant using pNPP as substrate preincubated for 10 mins followed by incubation with substrate for 30 mins and measured every 5 mins for 30 mins by Lineweaver-burk plot based Dixon plot analysis
[3] = molecular target: T2, Tyrosine-protein phosphatase non-receptor type 1 (Homo sapiens) (UniProt P18031); assay: as §1, with “Ratio” for “Competitive inhibition”, “of kinetic constant Kik to Kiv at” for “of”, “coli” for “coli assessed as inhibitory constant”, “plot” for “plot based Dixon plot”
T2 sequence (whole entry): T1 sequence (P18031 whole entry)

| IC50 [1] | Ki [2] | Ratio [3] | Compound |
| --- | --- | --- | --- |
| 22.2 µM |  |  | COC(=O)C1=CO[C@@]2(C)C[C@@H](O)[C@H]1[C@@H]2CO |
| > 80 µM |  |  | COC(=O)[C@H](CO)[C@@H]1C(CO)=C(C)C[C@H]1O |
| > 80 µM |  |  | COC(=O)C1=C(C)C[C@@H](O)[C@@H]1[C@H](CO)C(=O)OC |
| > 80 µM |  |  | COC(=O)[C@@H](CO)[C@@H]1C(CO)=C(C)C[C@H]1O |
| > 80 µM |  |  | COC(=O)[C@H]1COC(=O)C2=C(C)C[C@@H](O)[C@@H]21 |
| > 80 µM |  |  | CC1=C2C(=O)OCC[C@H]2[C@H](O)C1 |
| 8.9 µM | 2.57 µM | 6.86 to 37.6 | CC1=C2COC(=O)[C@@H](CO)[C@H]2[C@H](O)C1 |
| 43.6 µM |  |  | CC1=C[C@@H](O)[C@@H]2[C@@H](CO)C(=O)O[C@]12CO |
| > 80 µM |  |  | CC1=C(CO)[C@@H](CCO)[C@H](O)C1 |
| 9.8 µM | 4.13 µM | 6.86 to 37.6 | CC1=C2COC(=O)[C@H](CO)[C@H]2[C@H](O)C1 |
| > 80 µM |  |  | COC(=O)C1=C(C)C[C@@H](O)[C@@H]1CCO |
